Experimental findings from ChEMBL document CHEMBL5465560, “Selectivity Literature for EUbOPEN Chemogenomic Library” (2024) are described below.

The structures appear in SMILES notation.

Assay [1] addresses Serine/threonine-protein kinase Nek4 (Homo sapiens) (UniProt P51957). As to the kind of experiment: Selectivity interaction (Kinase panel (Z-LYTE Assay)) EUB0001632a NEK4. The conditions noted are these: at 10 µM.
For assay [2], the target named is T1, Serine/threonine-protein kinase LATS2 (Homo sapiens) (UniProt Q9NRM7).
T1 sequence (whole entry): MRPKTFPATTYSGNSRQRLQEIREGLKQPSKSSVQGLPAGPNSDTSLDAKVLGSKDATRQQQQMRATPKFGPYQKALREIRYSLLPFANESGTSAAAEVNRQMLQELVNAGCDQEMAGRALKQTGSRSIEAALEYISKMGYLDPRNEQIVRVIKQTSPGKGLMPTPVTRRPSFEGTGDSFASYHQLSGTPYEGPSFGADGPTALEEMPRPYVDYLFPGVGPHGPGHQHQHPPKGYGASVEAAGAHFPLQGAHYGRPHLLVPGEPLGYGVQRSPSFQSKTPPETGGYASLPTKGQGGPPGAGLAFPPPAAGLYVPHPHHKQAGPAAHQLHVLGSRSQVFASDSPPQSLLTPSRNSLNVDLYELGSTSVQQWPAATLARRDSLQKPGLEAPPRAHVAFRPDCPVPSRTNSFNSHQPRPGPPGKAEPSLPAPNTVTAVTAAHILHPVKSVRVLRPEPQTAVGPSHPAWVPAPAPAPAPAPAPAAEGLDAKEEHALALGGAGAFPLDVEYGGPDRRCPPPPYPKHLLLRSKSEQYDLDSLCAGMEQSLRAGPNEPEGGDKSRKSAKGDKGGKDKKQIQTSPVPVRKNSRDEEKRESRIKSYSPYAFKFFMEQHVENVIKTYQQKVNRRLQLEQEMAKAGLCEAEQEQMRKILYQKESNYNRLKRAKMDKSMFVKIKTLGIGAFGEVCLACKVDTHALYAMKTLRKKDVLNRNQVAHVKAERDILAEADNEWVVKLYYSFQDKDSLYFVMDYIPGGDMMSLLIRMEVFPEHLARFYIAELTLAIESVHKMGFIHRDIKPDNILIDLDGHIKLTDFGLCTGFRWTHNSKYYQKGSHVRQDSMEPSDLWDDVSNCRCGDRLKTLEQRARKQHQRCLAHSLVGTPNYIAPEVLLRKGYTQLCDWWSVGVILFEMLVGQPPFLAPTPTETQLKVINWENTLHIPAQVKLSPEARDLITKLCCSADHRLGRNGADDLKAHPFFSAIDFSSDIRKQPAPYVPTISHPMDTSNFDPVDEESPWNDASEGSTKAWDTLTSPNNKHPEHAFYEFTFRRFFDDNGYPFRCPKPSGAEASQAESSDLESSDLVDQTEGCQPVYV
As to the kind of experiment: Selectivity interaction (ActivX KiNativ screen (ex vivo kinase selectivity in human PBMCs)) EUB0001619a LATS2. In kind it is cell-based. The conditions noted are these: PBMC, at 1 µM.

The next assay addresses Aurora kinase B (Homo sapiens, UniProt Q96GD4). The conditions noted are these: at 10 µM.
Assay [3] has as its target Dual specificity tyrosine-phosphorylation-regulated kinase 1B (Homo sapiens, UniProt Q9Y463). As to the kind of experiment: Selectivity interaction (KinomeScan (DiscoverX)) EUB0001550a DYRK1B. The conditions noted are these: at 1 µM.
Assay [4] addresses T2, Serine/threonine-protein kinase BRSK1 (Homo sapiens) (UniProt Q8TDC3).
T2 sequence (whole entry): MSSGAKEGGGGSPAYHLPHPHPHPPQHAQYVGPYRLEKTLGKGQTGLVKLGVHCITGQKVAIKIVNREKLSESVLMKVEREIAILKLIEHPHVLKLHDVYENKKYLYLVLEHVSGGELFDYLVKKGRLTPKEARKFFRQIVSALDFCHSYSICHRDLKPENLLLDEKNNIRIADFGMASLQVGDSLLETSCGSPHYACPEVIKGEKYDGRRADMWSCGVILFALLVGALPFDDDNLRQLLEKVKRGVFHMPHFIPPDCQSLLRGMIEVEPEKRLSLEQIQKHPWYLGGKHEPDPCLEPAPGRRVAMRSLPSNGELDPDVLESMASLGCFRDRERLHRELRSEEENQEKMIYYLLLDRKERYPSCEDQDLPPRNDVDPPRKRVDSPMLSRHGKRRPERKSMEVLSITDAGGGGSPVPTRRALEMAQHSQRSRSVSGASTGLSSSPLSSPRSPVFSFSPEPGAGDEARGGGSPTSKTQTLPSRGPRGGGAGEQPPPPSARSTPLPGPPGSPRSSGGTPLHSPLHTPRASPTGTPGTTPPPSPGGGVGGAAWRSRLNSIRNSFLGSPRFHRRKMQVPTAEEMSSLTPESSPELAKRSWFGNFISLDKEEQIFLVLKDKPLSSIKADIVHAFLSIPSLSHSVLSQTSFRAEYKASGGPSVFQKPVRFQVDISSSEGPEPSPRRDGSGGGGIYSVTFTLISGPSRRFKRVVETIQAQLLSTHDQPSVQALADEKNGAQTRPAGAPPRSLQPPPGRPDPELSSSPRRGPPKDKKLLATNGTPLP
As to the kind of experiment: Selectivity interaction (KinomeScan (DiscoverX)) EUB0000045b BRSK1.

Assay [5] deals with T3, Serine/threonine-protein kinase Nek2 (Homo sapiens) (UniProt P51955).
T3 sequence (whole entry): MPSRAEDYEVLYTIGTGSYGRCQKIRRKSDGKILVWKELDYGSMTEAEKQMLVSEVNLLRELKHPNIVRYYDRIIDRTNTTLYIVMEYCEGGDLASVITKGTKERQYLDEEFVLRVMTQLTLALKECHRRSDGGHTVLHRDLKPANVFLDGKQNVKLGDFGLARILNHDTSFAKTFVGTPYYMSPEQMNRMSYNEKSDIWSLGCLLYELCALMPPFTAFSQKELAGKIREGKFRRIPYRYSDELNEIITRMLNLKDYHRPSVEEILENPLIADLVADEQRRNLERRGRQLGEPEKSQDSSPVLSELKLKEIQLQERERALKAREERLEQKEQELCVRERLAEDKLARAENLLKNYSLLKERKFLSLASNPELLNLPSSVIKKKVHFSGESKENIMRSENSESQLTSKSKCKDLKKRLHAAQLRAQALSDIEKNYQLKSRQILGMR
The assay can be described thus: Selectivity interaction (Ambit KINOMEscan and KiNATiv profiling in Jurkat cells) EUB0000090b NEK2. The conditions noted are these: at 1 µM. The class given is cell-based.

For assay [6], the target named is Tyrosine-protein kinase Fyn (Homo sapiens) (UniProt P06241). The assay can be described thus: Selectivity interaction (Upstate Kinase Profiler service (Millipore)) EUB0000056c FYN. The conditions noted are these: at 1 µM.
Chain of Tyrosine-protein kinase Fyn (Homo sapiens) (P06241 2-537 limits assumed): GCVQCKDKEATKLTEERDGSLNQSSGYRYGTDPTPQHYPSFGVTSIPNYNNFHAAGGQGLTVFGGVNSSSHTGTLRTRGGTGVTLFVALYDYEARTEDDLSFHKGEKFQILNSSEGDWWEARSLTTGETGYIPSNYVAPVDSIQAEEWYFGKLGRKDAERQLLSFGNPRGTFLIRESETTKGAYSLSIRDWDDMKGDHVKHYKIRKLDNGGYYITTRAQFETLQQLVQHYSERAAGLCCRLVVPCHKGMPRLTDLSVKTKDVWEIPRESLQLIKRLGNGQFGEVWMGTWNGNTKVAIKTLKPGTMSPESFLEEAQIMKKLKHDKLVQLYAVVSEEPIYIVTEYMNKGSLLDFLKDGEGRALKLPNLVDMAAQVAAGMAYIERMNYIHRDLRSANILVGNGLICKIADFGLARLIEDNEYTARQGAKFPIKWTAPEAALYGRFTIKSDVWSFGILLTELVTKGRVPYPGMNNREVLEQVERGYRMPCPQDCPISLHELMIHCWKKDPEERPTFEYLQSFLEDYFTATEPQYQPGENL
Assay [7] addresses DNA (cytosine-5)-methyltransferase 3A (Homo sapiens) (UniProt Q9Y6K1). As to the kind of experiment: Selectivity interaction (Transferase panel (protein, RNA, and DNA methyltransferases. and EP300 (acetyltransferase))) EUB0000270b DNMT3A.
Assay [8] concerns the target Serine/threonine-protein kinase 24 (Homo sapiens) (UniProt Q9Y6E0). As to the kind of experiment: Selectivity interaction (KinomeScan (DiscoverX)) EUB0000092b STK24. The conditions noted are these: at 10 µM.
For assay [9], the target named is Ribosomal protein S6 kinase alpha-3 (Homo sapiens, UniProt P51812). The assay can be described thus: Selectivity interaction (KinomeScan (DiscoverX)) EUB0000229b RPS6KA3. To be noted: at 10 µM.
Chain of Ribosomal protein S6 kinase alpha-3 (P51812 whole entry): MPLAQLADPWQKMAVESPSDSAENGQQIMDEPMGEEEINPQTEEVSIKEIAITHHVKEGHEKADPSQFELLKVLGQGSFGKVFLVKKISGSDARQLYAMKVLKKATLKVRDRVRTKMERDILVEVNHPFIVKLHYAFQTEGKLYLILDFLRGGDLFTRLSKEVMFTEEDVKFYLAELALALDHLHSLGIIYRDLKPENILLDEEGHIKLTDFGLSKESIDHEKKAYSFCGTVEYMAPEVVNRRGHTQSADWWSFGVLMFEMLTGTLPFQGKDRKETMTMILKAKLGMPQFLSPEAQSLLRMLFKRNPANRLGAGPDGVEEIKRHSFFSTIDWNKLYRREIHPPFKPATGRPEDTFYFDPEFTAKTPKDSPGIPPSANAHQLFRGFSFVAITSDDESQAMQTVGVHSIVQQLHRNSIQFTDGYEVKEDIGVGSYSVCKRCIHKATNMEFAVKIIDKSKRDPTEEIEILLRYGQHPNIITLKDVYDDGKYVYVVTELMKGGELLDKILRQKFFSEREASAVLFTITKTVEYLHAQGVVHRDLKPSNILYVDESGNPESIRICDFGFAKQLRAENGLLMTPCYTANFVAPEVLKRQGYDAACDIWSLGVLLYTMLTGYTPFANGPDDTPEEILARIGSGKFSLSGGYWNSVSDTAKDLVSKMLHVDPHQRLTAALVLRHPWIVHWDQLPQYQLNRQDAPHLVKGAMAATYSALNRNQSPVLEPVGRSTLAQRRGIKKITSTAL

Chain of DNA (cytosine-5)-methyltransferase 3A (Homo sapiens) (Q9Y6K1 whole entry, looked up): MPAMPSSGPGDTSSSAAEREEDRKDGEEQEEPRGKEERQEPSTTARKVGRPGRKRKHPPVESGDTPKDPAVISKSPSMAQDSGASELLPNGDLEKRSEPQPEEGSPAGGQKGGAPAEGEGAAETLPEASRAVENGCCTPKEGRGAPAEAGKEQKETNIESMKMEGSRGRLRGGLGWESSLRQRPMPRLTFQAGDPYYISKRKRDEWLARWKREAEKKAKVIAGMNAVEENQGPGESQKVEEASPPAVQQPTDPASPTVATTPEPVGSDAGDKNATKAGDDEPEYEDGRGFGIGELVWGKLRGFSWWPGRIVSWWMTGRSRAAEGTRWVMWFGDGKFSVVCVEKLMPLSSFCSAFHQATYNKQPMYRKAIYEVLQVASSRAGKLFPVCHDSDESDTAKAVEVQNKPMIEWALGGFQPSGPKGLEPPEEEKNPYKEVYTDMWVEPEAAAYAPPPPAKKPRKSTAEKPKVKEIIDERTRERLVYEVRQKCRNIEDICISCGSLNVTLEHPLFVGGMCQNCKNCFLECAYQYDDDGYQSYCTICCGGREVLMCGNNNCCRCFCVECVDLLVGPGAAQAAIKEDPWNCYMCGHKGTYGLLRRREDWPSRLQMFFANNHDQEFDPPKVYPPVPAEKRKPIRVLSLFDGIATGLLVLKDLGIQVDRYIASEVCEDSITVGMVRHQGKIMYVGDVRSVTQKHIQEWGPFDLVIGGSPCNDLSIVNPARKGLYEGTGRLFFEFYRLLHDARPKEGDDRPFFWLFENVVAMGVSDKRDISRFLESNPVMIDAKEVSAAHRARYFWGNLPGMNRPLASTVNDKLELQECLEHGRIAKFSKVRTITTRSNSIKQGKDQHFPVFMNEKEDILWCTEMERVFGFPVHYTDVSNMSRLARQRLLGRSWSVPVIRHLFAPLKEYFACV
Chain of Dual specificity tyrosine-phosphorylation-regulated kinase 1B (Q9Y463 whole entry, looked up): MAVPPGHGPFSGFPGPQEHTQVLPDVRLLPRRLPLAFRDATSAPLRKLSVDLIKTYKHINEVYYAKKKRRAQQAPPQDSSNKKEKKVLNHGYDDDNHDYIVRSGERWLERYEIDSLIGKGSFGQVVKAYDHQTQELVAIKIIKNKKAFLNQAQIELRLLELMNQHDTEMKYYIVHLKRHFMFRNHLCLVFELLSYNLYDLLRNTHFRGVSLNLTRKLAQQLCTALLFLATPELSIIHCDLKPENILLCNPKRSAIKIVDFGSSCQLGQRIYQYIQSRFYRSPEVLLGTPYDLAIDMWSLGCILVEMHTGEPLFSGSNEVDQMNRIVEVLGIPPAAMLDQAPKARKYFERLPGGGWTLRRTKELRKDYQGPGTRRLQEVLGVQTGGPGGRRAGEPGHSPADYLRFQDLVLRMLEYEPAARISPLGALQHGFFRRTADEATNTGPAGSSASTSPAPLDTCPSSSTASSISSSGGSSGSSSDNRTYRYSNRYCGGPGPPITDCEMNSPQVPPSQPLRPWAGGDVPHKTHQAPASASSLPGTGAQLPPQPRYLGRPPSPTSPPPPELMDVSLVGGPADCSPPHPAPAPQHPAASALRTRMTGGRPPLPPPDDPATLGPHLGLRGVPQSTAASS
Chain of Serine/threonine-protein kinase 24 (Homo sapiens) (Q9Y6E0 whole entry, looked up): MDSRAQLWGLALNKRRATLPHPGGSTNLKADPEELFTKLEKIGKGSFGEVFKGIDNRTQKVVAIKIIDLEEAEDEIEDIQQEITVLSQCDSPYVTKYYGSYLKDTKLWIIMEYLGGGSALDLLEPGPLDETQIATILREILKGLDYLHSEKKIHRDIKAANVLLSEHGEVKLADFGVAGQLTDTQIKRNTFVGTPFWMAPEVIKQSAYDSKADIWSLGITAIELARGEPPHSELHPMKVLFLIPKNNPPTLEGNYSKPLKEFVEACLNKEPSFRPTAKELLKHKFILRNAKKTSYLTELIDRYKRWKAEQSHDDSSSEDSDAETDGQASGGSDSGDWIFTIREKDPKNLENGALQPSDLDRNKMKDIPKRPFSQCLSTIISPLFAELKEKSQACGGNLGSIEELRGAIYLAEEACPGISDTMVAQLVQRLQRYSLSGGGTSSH
Chain of Aurora kinase B (Q96GD4 whole entry): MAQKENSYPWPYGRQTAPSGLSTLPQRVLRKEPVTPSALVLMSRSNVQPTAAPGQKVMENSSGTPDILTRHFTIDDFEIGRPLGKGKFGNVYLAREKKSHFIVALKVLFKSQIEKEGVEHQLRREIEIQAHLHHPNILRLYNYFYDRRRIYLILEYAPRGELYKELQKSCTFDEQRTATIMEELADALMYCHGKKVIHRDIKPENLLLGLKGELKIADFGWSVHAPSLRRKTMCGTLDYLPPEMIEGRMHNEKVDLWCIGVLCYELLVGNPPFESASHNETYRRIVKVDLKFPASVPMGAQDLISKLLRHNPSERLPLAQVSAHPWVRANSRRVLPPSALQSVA
Chain of Serine/threonine-protein kinase Nek4 (Homo sapiens) (P51957 whole entry, looked up): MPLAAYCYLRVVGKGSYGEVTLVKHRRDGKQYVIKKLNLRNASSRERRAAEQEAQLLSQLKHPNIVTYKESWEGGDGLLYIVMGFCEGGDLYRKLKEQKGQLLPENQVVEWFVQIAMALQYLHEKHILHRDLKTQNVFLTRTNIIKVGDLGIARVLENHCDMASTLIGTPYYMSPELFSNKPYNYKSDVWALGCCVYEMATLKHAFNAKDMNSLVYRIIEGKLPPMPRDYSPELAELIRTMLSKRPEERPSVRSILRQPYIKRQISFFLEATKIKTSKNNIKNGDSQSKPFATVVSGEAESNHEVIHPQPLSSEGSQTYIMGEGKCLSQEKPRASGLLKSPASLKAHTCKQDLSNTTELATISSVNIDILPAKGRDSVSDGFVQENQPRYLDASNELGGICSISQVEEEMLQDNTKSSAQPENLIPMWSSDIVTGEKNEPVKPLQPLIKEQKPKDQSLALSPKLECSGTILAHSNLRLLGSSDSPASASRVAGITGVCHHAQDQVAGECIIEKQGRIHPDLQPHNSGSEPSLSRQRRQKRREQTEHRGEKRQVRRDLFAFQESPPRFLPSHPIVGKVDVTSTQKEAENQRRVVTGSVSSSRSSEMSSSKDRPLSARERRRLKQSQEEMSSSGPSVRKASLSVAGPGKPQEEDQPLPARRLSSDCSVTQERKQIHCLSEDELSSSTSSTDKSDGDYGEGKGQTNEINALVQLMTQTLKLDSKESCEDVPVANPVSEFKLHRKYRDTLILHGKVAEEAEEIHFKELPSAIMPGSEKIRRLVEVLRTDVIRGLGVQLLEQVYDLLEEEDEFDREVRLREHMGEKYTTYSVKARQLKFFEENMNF

In [1], `Cn1cc(-n2cnc3c(NCc4nc5cc(Cl)c(Cl)cc5[nH]4)nc(N4CCOCC4)nc32)cn1` registered a % of control of 0.309%. `N#Cc1cccc(-c2c[nH]c3ncnc(N4CCOCC4)c23)c1` registered a % of inhibition in [2] of 16%. `CCN(CC)CCCCNc1ncc2cc(-c3cc(OC)cc(OC)c3)c(NC(=O)NC(C)(C)C)nc2n1` returned a % of control on Aurora kinase B of 100%. Take `CN(C)CC#Cc1ccc2[nH]c3c(c2c1)-c1nc(N)ncc1CCC3`: the % of control in assay [3] is 26%. Regarding `C=CC(=O)Nc1cc(-n2c(=O)ccc3cnc4ccc(-c5ccc(NS(C)(=O)=O)cc5)cc4c32)ccc1C`, the % of control in [4] (at 1 µM) worked out at 100%; in assay [4] (at 10 µM), 97%. With `CN(C)C/C=C/C(=O)Nc1ccc(C(=O)N2CCCC(Nc3ncc(Cl)c(-c4c[nH]c5ccccc45)n3)C2)cc1` (configuration not stated), in [5], the % of control was found to be 97%. `Cc1ccc(-c2ccc3c(ccc4sc5c(c43)NC[C@@H](C)NC5=O)n2)cn1` had a % of inhibition in [6] of 24%. Take `Cc1cc(CN)cc(C)c1-c1ncn(C)c1-c1cncn1C`: the results for the % activity in assay [7] (at 1 µM) and in assay [7] (at 10 µM) were > 90% and > 80%, respectively.

In assay [8], `CCC(=O)N1CCN(c2ccc(-n3c(=O)ccc4cnc5ccc(-c6cnc7ccccc7c6)cc5c43)cc2C(F)(F)F)CC1` showed a % of control of 100%. On to `COc1cc(N(C)c2ccnc3ccc(C(F)(F)F)cc23)cc(OC)c1OC`, for which, in assay [9], the % binding is 95%.
